The values that follow are results of earlier work, collected in patent US20140348931A1, “SUSTAINED-RELEASE TOPIRAMATE FORMULATIONS” (CADILA HEALTHCARE LIMITED, priority 2013, published 2014).

Usually half-life stands for how long it takes for the measured level to halve.

The conditions of this data set: in vivo.

For `CC1(C)OC2[C@@H](CO[C@@]3(COS(N)(=O)=O)OC(C)(C)O[C@@H]23)O1` (stereo partly drawn) [topiramate, 2, 3: 4, 5 Di-O-isopropylidene-β-D-fructopyranose sulfamate], the half-life is 21 h.
